Reference: US7419667B2, “Drug for cancer therapy” (Morinaga Milk Industry Co. Ltd., priority 2004, dated 2008)

Tested on: human Burkitt lymphoma Raji cells
Assay: Test Example 5: effect on cytotoxic activity of rituximab and complement, PI flow cytometry (FIG. 1)
Format: cell-based
Settings: rituximab + 10% human normal serum (AB type), sample 1.0 mg/ml final, 1 hour
From the text: The lactoferrin hydrolysate mixture prepared in Preparation Example 1 was used as Sample A, and the lactoferrin hydrolyzed peptide (lactoferrin partial peptide) prepared in Preparation Example 2 was used as Sample B. Moreover, as control samples, commercially available bovine lactoferrin (Morinaga Milk Industry Co., Ltd.) was used as Control A, and protamine sulfate was used as Control B.
Raji cells in the logarithmic growth phase were used as target cells. Raji cells collected by centrifugation of a cell suspension were suspended in fresh culture broth (RPMI 1640, 10% FCS), counted and then added to a 24-well plate in an amount of 1.0×10^5 cells/well. To each well, rituximab ([…]) and 1.0 mg/ml as a final concentration of Sample A, Sample B, Control A or Control B (or Medium [culture broth] instead of the sample) were added, and then human normal serum (AB type) was added at a final concentration of 10%. Then, the cells were cultured in a CO2 incubator for 1 hour, and PI (propidium iodide, 1 mg/ml) was added during the last 15 minutes of the culture. […] The Raji cells that died during the culture were counted by analyzing the suspension with a flow cytometer (FACScan) utilizing the fact that dead cells are positive in the nuclear staining with PI.
In this test, the cytotoxic activity was calculated in accordance with the following equation. […]

protamine sulfate [Control B]
cytotoxic activity [number of dead cells (%)] relative to Medium (culture broth): such increase of the activity was not observed
